Assay results as given in US20250270172A1, “Pyrimidine Derivatives As Modulators of the 5-HT2A Serotonin Receptor Useful For The Treatment of Disorders Related Thereto” (Arena Pharmaceuticals, Inc., priority 2020, published 2025).
pIC50, pKi: −log10 of the molar value.

Assays:
5-HT2A [1] = molecular target: T1, 5-HT2A (Homo sapiens (Human), UniProt P28223); assay: Radioligand binding assay, [^3H]5-HT competition, 5-HT2A; details: [^3H]5-HT radioligand, membranes of HEK293 cells expressing recombinant 5-HT2A; Ki from IC50 by Cheng-Prusoff; read-out: 5-HT2A serotonin binding Ki value
T1 sequence (P28223 whole entry): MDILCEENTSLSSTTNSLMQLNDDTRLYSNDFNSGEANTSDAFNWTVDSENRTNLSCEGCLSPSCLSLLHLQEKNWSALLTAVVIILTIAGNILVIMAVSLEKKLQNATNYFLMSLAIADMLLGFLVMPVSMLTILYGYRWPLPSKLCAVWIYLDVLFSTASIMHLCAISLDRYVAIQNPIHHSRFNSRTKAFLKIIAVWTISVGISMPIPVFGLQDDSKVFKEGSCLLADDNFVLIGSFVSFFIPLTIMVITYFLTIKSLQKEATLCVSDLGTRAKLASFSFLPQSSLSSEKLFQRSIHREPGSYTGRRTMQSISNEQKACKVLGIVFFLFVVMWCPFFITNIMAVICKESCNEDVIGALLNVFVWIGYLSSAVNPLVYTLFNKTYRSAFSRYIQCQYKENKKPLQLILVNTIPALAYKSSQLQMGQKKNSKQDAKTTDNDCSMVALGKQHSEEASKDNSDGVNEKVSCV

5-HT2A [2] = molecular target: T1, 5-HT2A; assay: HTRF IP-One antagonist assay, 5-HT2A; format: cell-based; details: HEK293 cells stably expressing receptor, inositol phosphate accumulation, 80 nM 5-HT in Assay Buffer;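 further: clonal line with low receptor density (about 50–70 fmol/mg), 10-point dose-response from 10 µM in 5-fold steps, HTRF detection after 1 hr, triplicate points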
5-HT2C = 5-HT2C (Homo sapiens (Human), UniProt P28335); assay: HTRF IP-One antagonist assay, 5-HT2C; format: cell-based; details: HEK293 cells stably expressing receptor, inositol phosphate accumulation, 80 nM 5-HT in Assay Buffer;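 further: clonal HEK293 line with low 5-HT2C density (10–20 fmol/mg), HTRF detection of IP-One, 10-point dose curves from 10 µM in 5-fold steps, triplicate points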
Sequence of 5-HT2C (P28335 33-458): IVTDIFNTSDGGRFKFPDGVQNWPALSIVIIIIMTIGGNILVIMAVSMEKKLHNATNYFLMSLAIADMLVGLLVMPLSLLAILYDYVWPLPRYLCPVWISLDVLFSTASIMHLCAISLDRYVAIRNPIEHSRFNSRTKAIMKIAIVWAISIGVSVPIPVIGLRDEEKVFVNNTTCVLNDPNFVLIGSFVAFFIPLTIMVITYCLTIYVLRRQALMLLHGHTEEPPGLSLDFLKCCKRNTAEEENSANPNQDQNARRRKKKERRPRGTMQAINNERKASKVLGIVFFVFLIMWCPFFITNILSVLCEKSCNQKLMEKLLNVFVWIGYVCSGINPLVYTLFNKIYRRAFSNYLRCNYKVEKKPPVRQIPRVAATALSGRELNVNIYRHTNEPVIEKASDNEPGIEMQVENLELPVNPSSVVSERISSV

Row | SMILES | pKi (5-HT2A [1]) | pIC50 (5-HT2A [2]) | pIC50 (5-HT2C)
1 | COc1cccc(C(=O)Nc2ccc(OCCN3CCCC3)c(-c3c(C)ncnc3C)c2)c1 [Compound 273, N-(3-(4,6-dimethylpyrimidin-5-yl)-4-(2-(pyrrolidin-1-yl)ethoxy)phenyl)-3-methoxybenzamide] | 8.95 | 8.77 | 4.00
2 | Cc1ncsc1C(=O)Nc1ccc(O[C@@H]2CCCNC2)c(-c2c(C)ncnc2C)c1 [Compound 412, (R)—N-(3-(4,6-dimethylpyrimidin-5-yl)-4-(piperidin-3-yloxy)phenyl)-4-methylthiazole-5-carboxamide] | 7.70 |  | 
3 | Cc1nc(C)c(C(=O)Nc2ccc(O[C@@H]3CCCNC3)c(-c3c(C)ncnc3C)c2)s1 [Compound 413, (R)—N-(3-(4,6-dimethylpyrimidin-5-yl)-4-(piperidin-3-yloxy)phenyl)-2,4-dimethylthiazole-5-carboxamide] | 6.59 |  | 
4 | Cc1cnoc1C(=O)Nc1ccc(O[C@@H]2CCCNC2)c(-c2c(C)ncnc2C)c1 [Compound 414, (R)—N-(3-(4,6-dimethylpyrimidin-5-yl)-4-(piperidin-3-yloxy)phenyl)-4-methylisoxazole-5-carboxamide] | 7.04 |  | 
5 | Cc1ncoc1C(=O)Nc1ccc(O[C@@H]2CCCNC2)c(-c2c(C)ncnc2C)c1 [Compound 415, (R)—N-(3-(4,6-dimethylpyrimidin-5-yl)-4-(piperidin-3-yloxy)phenyl)-4-methyloxazole-5-carboxamide] | 7.00 |  | 
6 | Cc1ncnc(C)c1-c1cc(NC(=O)c2cccn2C)ccc1O[C@@H]1CCCNC1 [Compound 416, (R)—N-(3-(4,6-dimethylpyrimidin-5-yl)-4-(piperidin-3-yloxy)phenyl)-1-methyl-1H-pyrrole-2-carboxamide] | 7.34 |  | 
7 | Cc1ncnc(C)c1-c1cc(NC(=O)c2ccnn2C)ccc1O[C@@H]1CCCNC1 [Compound 417, (R)—N-(3-(4,6-dimethylpyrimidin-5-yl)-4-(piperidin-3-yloxy)phenyl)-1-methyl-1H-pyrazole-5-carboxamide] | 7.39 |  | 
8 | Cc1ncnc(C)c1-c1cc(NC(=O)C2CC2)ccc1O[C@@H]1CCCNC1 [Compound 418, (R)—N-(3-(4,6-dimethylpyrimidin-5-yl)-4-(piperidin-3-yloxy)phenyl)cyclopropanecarboxamide] | 8.14 |  | 
9 | Cc1ncnc(C)c1-c1cc(NC(=O)C2CC2)ccc1O[C@H]1CCCNC1 [Compound 419, (S)—N-(3-(4,6-dimethylpyrimidin-5-yl)-4-(piperidin-3-yloxy)phenyl)cyclopropanecarboxamide] | 6.35 |  | 
10 | Cc1ncnc(C)c1-c1cc(NC(=O)C2CC2)ccc1OC[C@@H]1CCCCN1 [Compound 420, N-[3-(4,6-dimethylpyrimidin-5-yl)-4-[[(2S)-2-piperidyl]methoxy]phenyl]cyclopropanecarboxamide] | 7.03 |  | 
11 | Cc1ncnc(C)c1-c1cc(NC(=O)C2CC2)ccc1OC[C@H]1CCCCN1 [Compound 421] | 8.03 |  | 
12 | Cc1ncnc(C)c1-c1cc(NC(=O)[C@@H]2C[C@H]2F)ccc1OC[C@H]1CCCCN1 [Compound 422, (1S,2R)—N-[3-(4,6-dimethylpyrimidin-5-yl)-4-[[(2R)-2-piperidyl]methoxy]phenyl]-2-fluoro-cyclopropanecarboxamide] | 8.34 |  | 
13 | Cc1ncnc(C)c1-c1cc(NC(=O)[C@H]2C[C@H]2F)ccc1OC[C@H]1CCCCN1 [Compound 423, (1R,2R)—N-(3-(4,6-dimethylpyrimidin-5-yl)-4-(((R)-piperidin-2-yl)methoxy)phenyl)-2-fluorocyclopropane-1-carboxamide] | 7.79 |  | 
14 | Cc1ncnc(C)c1-c1cc(NC(=O)[C@@H]2C[C@@H]2F)ccc1OC[C@H]1CCCCN1 [Compound 424, (1S,2S)—N-(3-(4,6-dimethylpyrimidin-5-yl)-4-(((R)-piperidin-2-yl)methoxy)phenyl)-2-fluorocyclopropane-1-carboxamide] | 7.90 |  | 
15 | Cc1ncsc1C(=O)Nc1ccc(OC[C@H]2CCCCN2)c(-c2c(C)ncnc2C)c1 [Compound 425, (R)—N-(3-(4,6-dimethylpyrimidin-5-yl)-4-(piperidin-2-ylmethoxy)phenyl)-4-methylthiazole-5-carboxamide] | 7.36 |  | 
16 | Cc1nc(C)c(C(=O)Nc2ccc(OC[C@H]3CCCCN3)c(-c3c(C)ncnc3C)c2)s1 [Compound 426, (R)—N-(3-(4,6-dimethylpyrimidin-5-yl)-4-(piperidin-2-ylmethoxy)phenyl)-2,4-dimethylthiazole-5-carboxamide] | 7.06 |  | 
17 | Cc1cnoc1C(=O)Nc1ccc(OC[C@H]2CCCCN2)c(-c2c(C)ncnc2C)c1 [Compound 427, (R)—N-(3-(4,6-dimethylpyrimidin-5-yl)-4-(piperidin-2-ylmethoxy)phenyl)-4-methylisoxazole-5-carboxamide] | 7.57 |  | 
18 | Cc1ncoc1C(=O)Nc1ccc(OC[C@H]2CCCCN2)c(-c2c(C)ncnc2C)c1 [Compound 428, (R)—N-(3-(4,6-dimethylpyrimidin-5-yl)-4-(piperidin-2-ylmethoxy)phenyl)-4-methyloxazole-5-carboxamide] | 7.45 |  | 

Row | SMILES | pKi (5-HT2A [1]) | pIC50 (5-HT2A [2]) | pIC50 (5-HT2C)
19 | Cc1ncnc(C)c1-c1cc(NC(=O)c2cnoc2)ccc1OC[C@H]1CCCCN1 [Compound 429, (R)—N-(3-(4,6-dimethylpyrimidin-5-yl)-4-(piperidin-2-ylmethoxy)phenyl)isoxazole-4-carboxamide] | 6.88 |  | 
20 | Cc1nocc1C(=O)Nc1ccc(OC[C@H]2CCCCN2)c(-c2c(C)ncnc2C)c1 [Compound 430, (R)—N-(3-(4,6-dimethylpyrimidin-5-yl)-4-(piperidin-2-ylmethoxy)phenyl)-3-methylisoxazole-4-carboxamide] | 7.67 |  | 
21 | Cc1ncnc(C)c1-c1cc(NC(=O)c2cnoc2C)ccc1OC[C@H]1CCCCN1 [Compound 431, (R)—N-(3-(4,6-dimethylpyrimidin-5-yl)-4-(piperidin-2-ylmethoxy)phenyl)-5-methylisoxazole-4-carboxamide] | 7.26 |  | 
22 | Cc1ncnc(C)c1-c1cc(NC(=O)c2ncoc2C)ccc1OC[C@H]1CCCCN1 [Compound 432, (R)—N-(3-(4,6-dimethylpyrimidin-5-yl)-4-(piperidin-2-ylmethoxy)phenyl)-5-methyloxazole-4-carboxamide] | 7.72 |  | 
23 | Cc1ncnc(C)c1-c1cc(NC(=O)c2cnsc2)ccc1OC[C@H]1CCCCN1 [Compound 433, (R)—N-(3-(4,6-dimethylpyrimidin-5-yl)-4-(piperidin-2-ylmethoxy)phenyl) isothiazole-4-carboxamide] | 8.00 |  | 
24 | Cc1nscc1C(=O)Nc1ccc(OC[C@H]2CCCCN2)c(-c2c(C)ncnc2C)c1 [Compound 434, (R)—N-(3-(4,6-dimethylpyrimidin-5-yl)-4-(piperidin-2-ylmethoxy)phenyl)-3-methylisothiazole-4-carboxamide] | 7.71 |  | 
25 | Cc1ncnc(C)c1-c1cc(NC(=O)c2ccnn2C)ccc1OC[C@H]1CCCCN1 [Compound 437, N-[3-(4,6-dimethylpyrimidin-5-yl)-4-[[(2R)-2-piperidyl]methoxy]phenyl]-2-methyl-pyrazole-3-carboxamide] | 7.97 |  | 
26 | COC1(C(=O)Nc2ccc(OC[C@H]3CCCCN3)c(-c3c(C)ncnc3C)c2)CC1 [Compound 439, (R)—N-(3-(4,6-dimethylpyrimidin-5-yl)-4-(piperidin-2-ylmethoxy)phenyl)-1-methoxycyclopropane-1-carboxamide] | 7.84 |  | 
27 | Cc1ncnc(C)c1-c1cc(NC(=O)C2(O)CC2)ccc1OC[C@H]1CCCCN1 [Compound 440, (R)—N-(3-(4,6-dimethylpyrimidin-5-yl)-4-(piperidin-2-ylmethoxy)phenyl)-1-hydroxycyclopropane-1-carboxamide] | 7.19 |  | 
28 | Cc1ncnc(C)c1-c1cc(NC(=O)[C@H](F)C(C)C)ccc1OC[C@H]1CCCCN1 [Compound 442, (R)—N-(3-(4,6-dimethylpyrimidin-5-yl)-4-(((R)-piperidin-2-yl)methoxy)phenyl)-2-fluoro-3-methylbutanamide] | 7.77 |  | 
29 | Cc1ncnc(C)c1-c1cc(NC(=O)[C@@H](F)C(C)C)ccc1OC[C@H]1CCCCN1 [Compound 443, (S)—N-(3-(4,6-dimethylpyrimidin-5-yl)-4-(((R)-piperidin-2-yl)methoxy)phenyl)-2-fluoro-3-methylbutanamide] | 7.73 |  | 
30 | Cc1ncnc(C)c1-c1cc(NC(=O)C2(F)CCOCC2)ccc1OC[C@H]1CCCCN1 [Compound 445, (R)—N-(3-(4,6-dimethylpyrimidin-5-yl)-4-(piperidin-2-ylmethoxy)phenyl)-4-fluorotetrahydro-2H-pyran-4-carboxamide] | 7.20 |  | 
31 | Cc1ncnc(C)c1-c1cc(NC(=O)c2ccccc2)ccc1OC[C@H]1CCCCN1 [Compound 448, (R)—N-(3-(4,6-dimethylpyrimidin-5-yl)-4-(piperidin-2-ylmethoxy)phenyl)benzamide] | 8.77 |  | 
32 | Cc1ncnc(C)c1-c1cc(NC(=O)c2cccc(F)c2)ccc1OC[C@H]1CCCCN1 [Compound 449, (R)—N-(3-(4,6-dimethylpyrimidin-5-yl)-4-(piperidin-2-ylmethoxy)phenyl)-3-fluorobenzamide] | 8.19 |  | 
33 | COc1cccc(C(=O)Nc2ccc(OC[C@H]3CCCCN3)c(-c3c(C)ncnc3C)c2)c1 [Compound 450, (R)—N-(3-(4,6-dimethylpyrimidin-5-yl)-4-(piperidin-2-ylmethoxy)phenyl)-3-methoxybenzamide] | 8.99 |  | 
34 | CC(=N)NCCOc1ccc(NC(=O)C2CC2)cc1-c1c(C)ncnc1C [Compound 451, N-(4-(2-acetimidamidoethoxy)-3-(4,6-dimethylpyrimidin-5-yl)phenyl)cyclopropanecarboxamide] | 7.28 |  | 
35 | Cc1ncnc(C)c1-c1cc(NC(=O)C2(F)CC2)ccc1O[C@@H]1CCCNC1 [Compound 452, (R)—N-(3-(4,6-dimethylpyrimidin-5-yl)-4-(piperidin-3-yloxy)phenyl)-1-fluorocyclopropane-1-carboxamide] | 7.82 |  | 
